Patent publication US20020099050A1, “Drugs that enhance synaptic responses mediated by AMPA receptors” (priority 1993, published 2002)
One block for each compound: values may come before it.

How the values were obtained:
[1] = tested on: AMPA receptor; conditions: cited from earlier work
[2] = rat, in vivo, ip
From the text: To test the ability of invention compounds to pass the blood-brain barrier, Invention Compound II was labelled with carbon-11.
Radiolabelled Invention Compound II (see the table above) is synthesized by the following scheme (wherein the numbers in parenthesis refer to the quantity of reagent used, in millimoles): [drawing 31]
wherein Ar is aryl (such as methylenedioxybenzene), Im is imidazole (thus, ImHCl is imidazole hydrochloride), and R is an alkyl or alkylene radical (so that R2NH is, for example, piperidine). ^11C-labelled CO2 is produced by cyclotron irradiation and subsequently used in the above-described synthetic scheme. The time to complete the synthesis is about […] (2 times the half-life of carbon-11). After purification of [^11C]II on C18 Sep Pak, 260 μCi was diluted with 20 mg of nonradioactive II as carrier in a 1-ml solution of 23% propylene glycol and 10% ethanol in physiologically-buffered saline in order to simulate the dosage of 100 mg/Kg that was used in behavioral studies. The final 1 ml of solution was administered to a 200 g rat under halothane anesthesia (1.4-1.7% in oxygen) by intraperitoneal (i.p.) injection.
Biodistribution of the radiotracer in the body of the rat was monitored by a positron camera (Scanditronix PC2048-15B) and the time-activity curves were constructed using a Vax 3500 (Digital Equipment Corporation) and shown in FIG. 5.

[3] = target: T1, AMPA receptors; test: field EPSPs in field CA1 of in vitro slices of rat hippocampus; type: cell-based; conditions: for EC50: estimated from log dose/response curves, maximal response of 85% increase assumed where limited solubility prevented a maximum, read-out: EC50 (percent increase in field EPSP amplitude)
T1 construct: EC50 (percent increase in field EPSP amplitude); other: estimated from log dose/response curves; maximal response of 85; effect on field EPSP amplitude and duration; other: 1.5 mM, 15 minute infusion; enhancement of the area of the field EPSP; other: 100 μM; mean and S.D. of 4
Description: The physiological effects of invention compounds can be tested in vitro with slices of rat hippocampus as follows. Excitatory responses (field EPSPs) are measured in hippocampal slices which are maintained in a recording chamber continuously perfused with artificial cerebrospinal fluid (ACSF).
To conduct these tests, the hippocampus was removed from anesthetized, 2 month old Sprague-Dawley rats and in vitro slices (400 micrometers thick) were prepared and maintained in an interface chamber at 35° C. using conventional techniques [see, for example, Dunwiddie and Lynch, J. Physiol. Vol. 276: 353-367 (1978)]. The chamber was constantly perfused at 0.5 ml/min with ACSF containing (in mM): NaCl 124, KCl 3, KH2PO4 1.25, MgSO4 2.5, CaCl2 3.4, NaHCO3 26, glucose 10 and L-ascorbate 2. A bipolar nichrome stimulating electrode was positioned in the dendritic layer (stratum radiatum) of the hippocampal subfield CA1 close to the border of subfield CA3.
Current pulses (0.1 msec) through the stimulating electrode activate a population of the Schaffer-commissural (SC) fibers which arise from neurons in the subdivision CA3 and terminate in synapses on the dendrites of CA1 neurons. Activation of these synapses causes them to release the transmitter glutamate. Glutamate binds to the post-synaptic AMPA receptors which then transiently open an associated ion channel and permit a sodium current to enter the postsynaptic cell. This current results in a voltage in the extracellular space (the field excitatory post-synaptic potential or field “EPSP”) which is recorded by a high impedance recording electrode positioned in the middle of the stratum radiatum of CA1.
For the experiments summarized in FIG. 1, the intensity of the stimulation current was adjusted to produce half-maximal EPSPs (typically about 1.5-2.0 mV). Paired stimulation pulses were given every 40 sec with an interpulse interval of 200 msec (see below). The field EPSPs of the second response were digitized and analyzed to determine amplitude, half-width, and response area. If the responses were stable for 15-30 minutes (baseline), test compounds were added to the perfusion lines for a period of about 15 minutes. The perfusion was then changed back to regular ACSF.
Paired-pulse stimulation was used since stimulation of the SC fibers, in part, activates interneurons which generate an inhibitory postsynaptic potential (IPSP) in the pyramidal cells of CA1. This feed forward IPSP typically sets in after the EPSP reaches its peak. It accelerates the repolarization and shortens the decay phase of the EPSP, and thus could partially mask the effects of the test compounds. One of the relevant features of the feed-forward IPSP is that it can not be reactivated for several hundred milliseconds following a stimulation pulse. This phenomenon can be employed to advantage to eliminate IPSP by delivering paired pulses separated by 200 milliseconds and using the second (“primed”) response for data analysis.
The variables set forth in the table refer to the following generic structure: […]

[4] = tested on: AMPA receptor; type: in vivo, rat; conditions: 120-180 mg/kg i.p.
Description: Stimulating and recording electrodes were placed in the hippocampus of anesthetized rats so as to activate and monitor the same synaptic responses as in the slice studies described in Example XV. […] The time constant for the decay of the EPSP is a measure for the duration of the response.
In these experiments, male Sprague-Dawley rats were anesthetized with urethane (1.7 g/kg) and body temperature was maintained at 37° C. with the use of a heat lamp. A stimulation electrode (two twisted stainless steel wires, 150 μm diameter, insulated with teflon) was placed stereotaxically in the trajectory of the Schaffer collateral (SC) pathway from CA3 to CA1 of the hippocampus (coordinates relative to Bregma: 3.5 mm P., 3.5 mm L., and 3.0-3.7 mm V). […]
Negative field potentials reflecting dendritic EPSPs evoked by SC stimulation (0.1 ms pulses, 10-100 μA) with paired pulses (inter-pulse interval of 200 msec; see methodology described in Example XV) were amplified 500 times and digitized by computer at 20 sec intervals throughout each experiment. […] Decay time constants were determined by single exponential fits to the decay phase of the synaptic response and expressed as a percent of the value obtained during the pre-injection control period.

[5] = tested on: AMPA receptors; test: long-term potentiation (theta burst stimulation) in CA1 field of hippocampal slices; type: cell-based, rat; conditions: 1.5 mM infused 15 minutes prior to theta burst stimulation; five experiments; p<0.02
Description: Long-term potentiation (LTP; a stable increase in the EPSP size of single responses after brief periods of high frequency stimulation) was elicited in the CA1 field of hippocampal slices in the absence (see FIG. 3, stippled bars, N=6) and in the presence of 1.5 mM of Invention Compound I (see FIG. 3, striped bars, N=5). In the latter case, the amount of potentiation was determined after washing out the test compound and comparing the response size with that before test compound infusion. Data presented in FIG. 3 show the percent increase in the EPSP amplitude (mean and S.D.) at 40, 60, and 90 minutes after LTP induction.
For these studies, field EPSPs in slices of hippocampus were elicited by single stimulation pulses and recorded by extracellular electrodes as described in Example II. After collecting responses every 40 seconds for 20-30 minutes to establish a baseline, LTP was induced with ten short bursts of pulses delivered to the CA3 axons; each burst consisted of four pulses separated by 10 milliseconds; the interval between the bursts was 200 milliseconds. This pattern of axon stimulation mimics a discharge rhythm observed in the hippocampus of animals engaged in learning and is referred to as the “theta burst stimulation paradigm” [see, for example, Larson and Lynch in Science Vol. 232: 985-988 (1986)]. […]

Structure (SMILES): COc1ccc(C(=O)N2CC[C@@H](O)C2=O)cc1 [AHP, (R)-1-p-anisoyl-3-hydroxy-2-pyrrolidinone]
facilitation of AMPA receptor mediated responses in slices ([1]; nootropics tested in slices): facilitate AMPA receptor mediated responses

Structure (SMILES): O=C(c1ccc2ncoc2c1)N1CC=CCC1 [Compound IX, 1-(1,3-benzoxazol-6-ylcarbonyl)-1,2,3,6-tetrahydodyridine]
EC50 [3]: 4000 µM

Structure (SMILES): O=C(c1ccc2ocnc2c1)N1CC=CCC1 [Compound XI, 1-(1,3-benzoxazol-5-ylcarbonyl)-1,2,3,6-tetrahydropyridine]
EC50 [3]: 3000 µM

Structure (SMILES): COc1ccc(C(=O)NCCCC(=O)O)cc1 [anisoyl-GABA]
aniracetam-like effects [1]: no aniracetam-like effects

The next lines start with results.

brain distribution relative to head excluding the cranial cavity [2]: approximately equal
brain distribution relative to heart [2]: two-thirds
brain distribution relative to liver [2]: approximately one-quarter
time to plateau of brain uptake [2]: 5 to 10 min
Structure (SMILES): O=C(c1ccc2c(c1)OCO2)N1CCCCC1 [Compound II, 1-(1,3-benzodioxol-5-ylcarbonyl)-piperidine]
passage of the blood-brain barrier [2]: passes freely through the blood-brain barrier

fold greater increase in the response area than aniracetam ([3]; 750 μM): nine-fold
effect on synaptic response compared with aniracetam ([3]; 750 μM versus aniracetam 1500 μM, 15 minute infusion): much larger effect
reversibility of effect upon washout ([3]; after 15 minute infusion): fully reversible upon washout
degree of stable long-term potentiation versus stimulation in absence of drug [5]: nearly twice as large
Structure (SMILES): O=C(c1ccc2c(c1)OCCO2)N1CC=CCC1 [Compound I]
times greater effect on response area than aniracetam at the same concentrations ([3]; dosages in the range of 750 μM to 1.5 μM): 6-9 times
time within which the effect reversed after injection [4]: 60 to 120 min
effect on duration (decay time constant) of synaptic response ([4]; anesthetized rats, n=8): rapid increase in the duration of the synaptic response

EC50 [3]: 3000 µM
Structure (SMILES): O=C(c1cccc2c1OCCO2)N1CC=CC1 [Compound VIII, 1-(1,4-benzodioxan-5-ylcarbonyl)-3-pyrroline]

EC50 [3]: 1300 µM
Structure (SMILES): O=C(c1ccc2ncoc2c1)N1CCCCC1 [Compound X, 1-(1,3-benzoxazol-6-ylcarbonyl)-piperidine]

EC50 [3]: 5000 µM
Structure (SMILES): O=C(c1ccc2nc[nH]c2c1)N1CCCCC1 [Compound XII, 1-(1,3-benzimidazol-5-ylcarbonyl)-piperidine]
